These results are taken from ChEMBL document CHEMBL1153885, “Design, synthesis and evaluation of novel uracil acetamide derivatives as potential inhibitors of Plasmodium falciparum dUTP nucleotidohydrolase” (Eur J Med Chem, 2009).

One may read the Ki as the dissociation constant of the complex between target and ligand, obtained from inhibition or displacement. A high value points to weaker binding. Broadly, the IC50 is the concentration that inhibits the measured activity by half.

Series [1] has as its target T1, Deoxyuridine 5'-triphosphate nucleotidohydrolase, mitochondrial (Homo sapiens, UniProt P33316).
T1 sequence (P33316 whole entry): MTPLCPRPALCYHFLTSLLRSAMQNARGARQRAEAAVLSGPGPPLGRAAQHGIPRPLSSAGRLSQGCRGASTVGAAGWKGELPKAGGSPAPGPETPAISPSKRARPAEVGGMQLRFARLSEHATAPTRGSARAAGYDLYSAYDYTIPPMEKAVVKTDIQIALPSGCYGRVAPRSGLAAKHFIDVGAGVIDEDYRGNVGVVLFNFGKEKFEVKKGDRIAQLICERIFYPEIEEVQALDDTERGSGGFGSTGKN
As to the kind of experiment: Inhibition of human dUTPase.

For the next series, the target named is T2, dUTP pyrophosphatase (Plasmodium falciparum 3D7, UniProt Q8II92).
T2 sequence (Q8II92 whole entry): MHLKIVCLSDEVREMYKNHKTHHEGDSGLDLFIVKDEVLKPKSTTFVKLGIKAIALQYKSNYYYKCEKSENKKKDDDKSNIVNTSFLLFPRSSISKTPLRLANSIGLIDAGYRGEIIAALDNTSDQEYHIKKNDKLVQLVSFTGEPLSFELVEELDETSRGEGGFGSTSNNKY
The series can be described thus: Inhibition of Plasmodium falciparum dUTPase.

Series [2] in a line: Selectivity ratio of human dUTPase to Plasmodium falciparum dUTPase.
For a further series, the system named is L6. The series can be described thus: Cytotoxicity against rat L6 cells. It is filed as cell-based.
For the next series, the system named is Plasmodium falciparum. As to the kind of experiment: Antiplasmodial activity against chloroquine-resistant Plasmodium falciparum K1 infected erythrocytes. Format: functional, organism-based.

A value given as a limit tells only on which side of the number the result lay.

On to `O=C(Cn1ccc(=O)[nH]c1=O)NCCNCCNC(c1ccccc1)(c1ccccc1)c1ccccc1`, for which the Ki (in series [1]; at dUTP pyrophosphatase) was greater than 1000 µM throughout. Moreover, the Selectivity Index in series [2] is greater than 1. In the series with L6, this molecule gave an Activity of 52.7 µM. The molecule also yielded an IC50 with Plasmodium falciparum of 4.5 µM.

As to `O=C(Cn1ccc(=O)[nH]c1=O)NCCCCNC(c1ccccc1)(c1ccccc1)c1ccccc1`, the Ki (in series [1]; on dUTP pyrophosphatase) was greater than 1000 µM each time. The Selectivity Index in series [2] is greater than 1. The molecule also gave an Activity in the series on L6 of 42.7 µM. The IC50 in the series on Plasmodium falciparum amounted to 2.9 µM.

With `CC(C)(C)[Si](OCCCNC(=O)Cn1ccc(=O)[nH]c1=O)(c1ccccc1)c1ccccc1`, the Ki (in series [1]; at dUTP pyrophosphatase) was greater than 1000 µM each time. Also, in series [2], the Selectivity Index was greater than 1. Moreover, the Activity in the series with L6 turned out to be 88.9 µM. The molecule also returned an IC50 in the series with Plasmodium falciparum of 4.6 µM.

On to `CC(C)(C)[Si](NCCCCCCn1ccc(=O)[nH]c1=O)(c1ccccc1)c1ccccc1`, for which the values for the Ki (in series [1]; at dUTP pyrophosphatase) were greater than 1000 µM and 8.5 µM, respectively. Also, the Selectivity Index in series [2] was greater than 117. In the series with L6, this molecule returned an Activity of 18 µM. This molecule had an IC50 with Plasmodium falciparum of 3.9 µM.

`CC(C)(C)[Si](OCCCCNC(=O)Cn1ccc(=O)[nH]c1=O)(c1ccccc1)c1ccccc1`: the Ki (in series [1]; on dUTP pyrophosphatase) was greater than 1000 µM throughout. The Selectivity Index in series [2] was greater than 1. In the series with L6, this molecule came in with an Activity of 33.4 µM. Moreover, the IC50 in the series with Plasmodium falciparum stood at 3.7 µM.

For the molecule `O=c1ccn(CCCCCCNC(c2ccccc2)(c2ccccc2)c2ccccc2)c(=O)[nH]1`, the Selectivity Index in series [2] was greater than 555. The molecule further yielded an Activity with L6 of 40 µM.

For `O=C(Cn1ccc(=O)[nH]c1=O)NCCNC(c1ccccc1)(c1ccccc1)c1ccccc1`, the results for the inhibition constant (Ki) (in series [1]; at dUTP pyrophosphatase) were greater than 1000 µM and 37.3 µM, respectively. In series [2], the Selectivity Index is greater than 26. The molecule also returned an Activity in the series with L6 of 53 µM. The same molecule yielded an IC50 in the series with Plasmodium falciparum of 4.2 µM.

For the molecule `O=C(Cn1ccc(=O)[nH]c1=O)NCCCNC(c1ccccc1)(c1ccccc1)c1ccccc1`, the Ki in series [1] is greater than 1000 µM; on dUTP pyrophosphatase, 23.1 µM. For the same molecule, the Selectivity Index in series [2] was greater than 43. In the series on L6, the Activity was 102.2 µM. The IC50 in the series on Plasmodium falciparum worked out at 2.5 µM.

Regarding `O=C(Cn1ccc(=O)[nH]c1=O)N(CCO)CCNC(c1ccccc1)(c1ccccc1)c1ccccc1`, the inhibition constant Ki (in series [1]; on dUTP pyrophosphatase) was greater than 1000 µM in each case. Further, the Selectivity Index in series [2] is greater than 1. In the series with L6, this molecule returned an Activity greater than 373 µM. In the series on Plasmodium falciparum, this molecule yielded an IC50 greater than 83 µM.

With `O=C(Cn1ccc(=O)[nH]c1=O)NCCCNCCCNC(c1ccccc1)(c1ccccc1)c1ccccc1`, the Ki (in series [1]; at dUTP pyrophosphatase) was greater than 1000 µM each time. Also, in series [2], the Selectivity Index was greater than 1. This molecule also showed an Activity in the series with L6 of 76.7 µM. This molecule also had an IC50 in the series on Plasmodium falciparum of 3.9 µM.

Take `O=c1ccn(CCCCCNC(c2ccccc2)(c2ccccc2)c2ccccc2)c(=O)[nH]1`: in series [2], the Selectivity Index is greater than 232. This molecule also had an Activity in the series on L6 of 39 µM.
